Measurements from ChEMBL document CHEMBL4385643, “Design of a brain-penetrant CDK4/6 inhibitor for glioblastoma” (Bioorg Med Chem Lett, 2019).

Key:
[1] = biological target: Serine/threonine-protein kinase WNK2 (Homo sapiens) (UniProt Q9Y3S1); assay: Inhibition of tracer 1710 binding to recombinant human His-tagged WNK2 catalytic domain (166 to 489 residues) expressed in baculovirus expression system at 0.1 uM measured after 60 mins by Lanthascreen assay relative to control
[2] = biological target: Fibroblast growth factor receptor 3 (Homo sapiens) (UniProt P22607); assay: Inhibition of recombinant human His-tagged FGFR3 catalytic domain (399 to 806 residues) expressed in baculovirus expression system at 0.1 uM using tyrosine-4 peptide as substrate incubated for 60 mins by Z'-LYTE assay relative to control
[3] = biological target: Tyrosine-protein kinase JAK1 (Homo sapiens) (UniProt P23458); assay: Inhibition of recombinant human GST-tagged JAK1 catalytic domain (866 to 1154 residues) expressed in baculovirus expression system at 0.1 uM using tyrosine-6 peptide as substrate incubated for 60 mins by Z'-LYTE assay relative to control
Chain of Tyrosine-protein kinase JAK1 (Homo sapiens) (P23458 whole entry, the tested form may be a part): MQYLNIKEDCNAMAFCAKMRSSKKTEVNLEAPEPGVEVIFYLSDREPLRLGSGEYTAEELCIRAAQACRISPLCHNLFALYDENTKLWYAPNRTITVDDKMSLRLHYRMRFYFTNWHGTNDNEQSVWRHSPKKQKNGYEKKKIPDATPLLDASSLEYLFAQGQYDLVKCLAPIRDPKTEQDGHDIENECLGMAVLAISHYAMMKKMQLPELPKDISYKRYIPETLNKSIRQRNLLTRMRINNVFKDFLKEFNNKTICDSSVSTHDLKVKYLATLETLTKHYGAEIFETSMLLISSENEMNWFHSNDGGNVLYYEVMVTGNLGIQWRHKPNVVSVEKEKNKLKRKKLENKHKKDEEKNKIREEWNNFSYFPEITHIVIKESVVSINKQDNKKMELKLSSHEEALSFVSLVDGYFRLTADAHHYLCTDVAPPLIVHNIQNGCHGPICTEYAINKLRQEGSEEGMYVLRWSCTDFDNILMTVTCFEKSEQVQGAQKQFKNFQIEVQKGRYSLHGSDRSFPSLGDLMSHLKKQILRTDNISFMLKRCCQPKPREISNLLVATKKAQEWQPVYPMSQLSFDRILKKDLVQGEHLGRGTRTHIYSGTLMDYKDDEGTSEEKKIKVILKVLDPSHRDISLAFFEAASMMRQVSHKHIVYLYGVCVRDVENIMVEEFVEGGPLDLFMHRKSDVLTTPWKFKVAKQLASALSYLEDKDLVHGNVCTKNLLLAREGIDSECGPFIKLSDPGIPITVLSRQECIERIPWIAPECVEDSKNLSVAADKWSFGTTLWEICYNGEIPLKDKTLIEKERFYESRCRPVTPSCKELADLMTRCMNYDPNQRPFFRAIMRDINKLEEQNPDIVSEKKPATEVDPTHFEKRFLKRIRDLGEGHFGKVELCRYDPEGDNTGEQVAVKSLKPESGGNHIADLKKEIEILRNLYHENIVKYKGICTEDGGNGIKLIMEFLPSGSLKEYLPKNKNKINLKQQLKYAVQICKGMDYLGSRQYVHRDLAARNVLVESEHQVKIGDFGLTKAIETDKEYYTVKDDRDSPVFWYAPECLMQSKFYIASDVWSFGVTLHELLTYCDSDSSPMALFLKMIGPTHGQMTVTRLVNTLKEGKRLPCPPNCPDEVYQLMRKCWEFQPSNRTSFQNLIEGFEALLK

[4] = biological target: Serine/threonine-protein kinase mTOR (Homo sapiens) (UniProt P42345); assay: Inhibition of recombinant human GST-tagged mTOR catalytic domain (1360 to 2549 residues) expressed in baculovirus expression system at 0.1 uM using serine/threonine-11 peptide as substrate incubated for 60 mins by Z'-LYTE assay relative to control
[5] = biological target: Cytoplasmic tyrosine-protein kinase BMX (Homo sapiens) (UniProt P51813); assay: Inhibition of recombinant full length human His-tagged BMX expressed in baculovirus expression system at 0.1 uM using tyrosine-1 peptide as substrate incubated for 60 mins by Z'-LYTE assay relative to control
Chain of Cytoplasmic tyrosine-protein kinase BMX (Homo sapiens) (P51813 whole entry, the tested form may be a part): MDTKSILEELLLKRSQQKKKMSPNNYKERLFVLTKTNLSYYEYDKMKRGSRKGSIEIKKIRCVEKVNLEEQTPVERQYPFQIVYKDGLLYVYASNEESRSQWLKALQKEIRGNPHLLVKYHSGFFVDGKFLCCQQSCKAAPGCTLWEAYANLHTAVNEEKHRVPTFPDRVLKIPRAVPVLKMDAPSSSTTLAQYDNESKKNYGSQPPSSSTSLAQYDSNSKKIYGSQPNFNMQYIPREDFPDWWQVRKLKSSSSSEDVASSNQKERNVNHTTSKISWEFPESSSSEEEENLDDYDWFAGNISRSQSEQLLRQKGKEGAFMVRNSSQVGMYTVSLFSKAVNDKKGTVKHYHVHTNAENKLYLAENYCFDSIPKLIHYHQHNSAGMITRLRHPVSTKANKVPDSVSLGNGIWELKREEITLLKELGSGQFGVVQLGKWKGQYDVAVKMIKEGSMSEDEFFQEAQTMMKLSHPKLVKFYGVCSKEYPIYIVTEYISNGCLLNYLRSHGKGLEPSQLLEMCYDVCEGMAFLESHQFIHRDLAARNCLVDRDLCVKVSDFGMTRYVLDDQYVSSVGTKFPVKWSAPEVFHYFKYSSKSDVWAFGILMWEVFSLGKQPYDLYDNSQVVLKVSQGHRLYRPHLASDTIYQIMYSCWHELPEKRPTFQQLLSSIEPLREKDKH

[6] = biological target: Insulin-like growth factor 1 receptor (Homo sapiens) (UniProt P08069); assay: Inhibition of recombinant human His-tagged IGF1R catalytic domain (960 to 1397 residues) expressed in baculovirus expression system at 0.1 uM using tyrosine-1 peptide as substrate incubated for 60 mins by Z'-LYTE assay relative to control
[7] = biological target: Hepatocyte growth factor receptor (Homo sapiens) (UniProt P08581); assay: Inhibition of recombinant human His-tagged MET (956 to 1390 residues) expressed in baculovirus expression system at 0.1 uM using tyrosine-6 peptide as substrate incubated for 60 mins by Z'-LYTE assay relative to control
Chain of Hepatocyte growth factor receptor (Homo sapiens) (P08581 whole entry, the tested form may be a part): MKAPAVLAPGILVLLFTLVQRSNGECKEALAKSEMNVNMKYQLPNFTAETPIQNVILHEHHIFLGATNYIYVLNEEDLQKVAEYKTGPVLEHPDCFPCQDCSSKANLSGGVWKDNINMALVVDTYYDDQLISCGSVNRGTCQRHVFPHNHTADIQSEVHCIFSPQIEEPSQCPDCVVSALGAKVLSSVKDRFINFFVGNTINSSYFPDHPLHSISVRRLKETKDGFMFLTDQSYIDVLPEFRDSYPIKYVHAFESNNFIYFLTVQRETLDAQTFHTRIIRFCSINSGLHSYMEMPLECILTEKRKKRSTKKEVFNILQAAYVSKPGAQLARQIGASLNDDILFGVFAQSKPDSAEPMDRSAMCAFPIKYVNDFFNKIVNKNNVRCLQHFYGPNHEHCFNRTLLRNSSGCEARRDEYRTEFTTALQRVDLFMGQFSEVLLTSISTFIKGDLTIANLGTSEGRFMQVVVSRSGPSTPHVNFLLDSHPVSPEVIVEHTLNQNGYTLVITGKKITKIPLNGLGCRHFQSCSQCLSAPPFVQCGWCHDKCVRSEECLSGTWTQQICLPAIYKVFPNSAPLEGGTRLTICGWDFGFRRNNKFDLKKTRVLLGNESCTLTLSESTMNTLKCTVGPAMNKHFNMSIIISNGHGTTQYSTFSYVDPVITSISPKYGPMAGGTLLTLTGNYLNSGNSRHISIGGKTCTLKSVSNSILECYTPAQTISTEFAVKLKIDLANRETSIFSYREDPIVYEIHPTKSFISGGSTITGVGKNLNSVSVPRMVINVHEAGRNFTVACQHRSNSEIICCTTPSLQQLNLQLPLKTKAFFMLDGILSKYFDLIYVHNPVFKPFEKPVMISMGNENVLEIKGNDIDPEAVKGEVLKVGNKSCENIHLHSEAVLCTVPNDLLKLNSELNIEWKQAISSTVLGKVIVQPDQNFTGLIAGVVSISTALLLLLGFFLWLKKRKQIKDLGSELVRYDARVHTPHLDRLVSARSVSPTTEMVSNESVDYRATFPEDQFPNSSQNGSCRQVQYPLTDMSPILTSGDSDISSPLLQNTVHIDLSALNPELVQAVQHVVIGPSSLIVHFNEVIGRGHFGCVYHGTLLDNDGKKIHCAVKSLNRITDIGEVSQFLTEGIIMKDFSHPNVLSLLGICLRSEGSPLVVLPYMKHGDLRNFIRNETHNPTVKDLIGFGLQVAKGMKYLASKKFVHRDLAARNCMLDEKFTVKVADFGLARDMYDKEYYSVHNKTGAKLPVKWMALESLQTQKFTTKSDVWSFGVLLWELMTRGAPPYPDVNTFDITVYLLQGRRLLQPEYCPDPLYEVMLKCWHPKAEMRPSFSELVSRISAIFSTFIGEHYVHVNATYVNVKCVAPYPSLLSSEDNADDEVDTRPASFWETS

[8] = biological target: Proto-oncogene tyrosine-protein kinase Src (Homo sapiens) (UniProt P12931); assay: Inhibition of recombinant full length human His-tagged SRC expressed in baculovirus expression system at 0.1 uM using tyrosine-2 peptide as substrate incubated for 60 mins by Z'-LYTE assay relative to control
[9] = biological target: Calcium/calmodulin-dependent protein kinase kinase 1 (Homo sapiens) (UniProt Q8N5S9); assay: Inhibition of tracer 236 binding to recombinant human GST-tagged CAMKK1 expressed in Escherichia coli expression system at 0.1 uM measured after 60 mins by Lanthascreen assay relative to control
[10] = biological target: BDNF/NT-3 growth factors receptor (Homo sapiens) (UniProt Q16620); assay: Inhibition of recombinant human His-tagged TRKB catalytic domain (526 to 838 residues) expressed in baculovirus expression system at 0.1 uM using tyrosine-1 peptide as substrate incubated for 60 mins by Z'-LYTE assay relative to control
[11] = biological target: Serine/threonine-protein kinase Nek4 (Homo sapiens) (UniProt P51957); assay: Inhibition of recombinant full length human GST-tagged NEK4 expressed in baculovirus expression system at 0.1 uM using serine/threonine-17 peptide as substrate incubated for 60 mins by Z'-LYTE assay relative to control
[12] = biological target: Serine/threonine-protein kinase 16 (Homo sapiens) (UniProt O75716); assay: Inhibition of tracer 236 binding to recombinant full length human His-tagged STK16 expressed in baculovirus expression system at 0.1 uM measured after 60 mins by Lanthascreen assay relative to control
Chain of Serine/threonine-protein kinase 16 (Homo sapiens) (O75716 whole entry, the tested form may be a part): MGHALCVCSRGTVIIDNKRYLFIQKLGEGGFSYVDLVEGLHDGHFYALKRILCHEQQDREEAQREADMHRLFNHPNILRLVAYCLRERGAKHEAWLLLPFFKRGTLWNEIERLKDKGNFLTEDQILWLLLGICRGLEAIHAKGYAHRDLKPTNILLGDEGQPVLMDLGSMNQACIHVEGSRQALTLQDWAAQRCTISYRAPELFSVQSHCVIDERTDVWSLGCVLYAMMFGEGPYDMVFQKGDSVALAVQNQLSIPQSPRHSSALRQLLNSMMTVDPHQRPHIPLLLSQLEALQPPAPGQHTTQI

[13] = biological target: Ephrin type-A receptor 8 (Homo sapiens) (UniProt P29322); assay: Inhibition of recombinant human GST-tagged EPHA8 catalytic domain (565 to 1005 residues) expressed in baculovirus expression system at 0.1 uM using tyrosine-2 peptide as substrate incubated for 60 mins by Z'-LYTE assay relative to control
[14] = biological target: Serine/threonine-protein kinase NLK (Homo sapiens) (UniProt Q9UBE8); assay: Inhibition of tracer 178 binding to recombinant full length human GST-tagged NLK expressed by baculovirus expression system at 0.1 uM measured after 60 mins by Lanthascreen assay relative to control
[15] = biological target: Non-receptor tyrosine-protein kinase TYK2 (Homo sapiens) (UniProt P29597); assay: Inhibition of recombinant human GST-tagged TYK2 catalytic domain (833 to 1187 residues) expressed in baculovirus expression system at 0.1 uM using tyrosine-3 peptide as substrate incubated for 60 mins by Z'-LYTE assay relative to control
[16] = biological target: Eukaryotic elongation factor 2 kinase (Homo sapiens) (UniProt O00418); assay: Inhibition of recombinant full length human GST-tagged EEF2K expressed in Escherichia coli expression system at 0.1 uM using serine/threonine-24 peptide as substrate incubated for 60 mins by Z'-LYTE assay relative to control
[17] = biological target: Tyrosine-protein kinase receptor TYRO3 (Homo sapiens) (UniProt Q06418); assay: Inhibition of recombinant human GST-tagged RSE catalytic domain (451 to 890 residues) expressed in baculovirus expression system at 0.1 uM using tyrosine-2 peptide as substrate incubated for 60 mins by Z'-LYTE assay relative to control
Chain of Tyrosine-protein kinase receptor TYRO3 (Homo sapiens) (Q06418 whole entry, the tested form may be a part): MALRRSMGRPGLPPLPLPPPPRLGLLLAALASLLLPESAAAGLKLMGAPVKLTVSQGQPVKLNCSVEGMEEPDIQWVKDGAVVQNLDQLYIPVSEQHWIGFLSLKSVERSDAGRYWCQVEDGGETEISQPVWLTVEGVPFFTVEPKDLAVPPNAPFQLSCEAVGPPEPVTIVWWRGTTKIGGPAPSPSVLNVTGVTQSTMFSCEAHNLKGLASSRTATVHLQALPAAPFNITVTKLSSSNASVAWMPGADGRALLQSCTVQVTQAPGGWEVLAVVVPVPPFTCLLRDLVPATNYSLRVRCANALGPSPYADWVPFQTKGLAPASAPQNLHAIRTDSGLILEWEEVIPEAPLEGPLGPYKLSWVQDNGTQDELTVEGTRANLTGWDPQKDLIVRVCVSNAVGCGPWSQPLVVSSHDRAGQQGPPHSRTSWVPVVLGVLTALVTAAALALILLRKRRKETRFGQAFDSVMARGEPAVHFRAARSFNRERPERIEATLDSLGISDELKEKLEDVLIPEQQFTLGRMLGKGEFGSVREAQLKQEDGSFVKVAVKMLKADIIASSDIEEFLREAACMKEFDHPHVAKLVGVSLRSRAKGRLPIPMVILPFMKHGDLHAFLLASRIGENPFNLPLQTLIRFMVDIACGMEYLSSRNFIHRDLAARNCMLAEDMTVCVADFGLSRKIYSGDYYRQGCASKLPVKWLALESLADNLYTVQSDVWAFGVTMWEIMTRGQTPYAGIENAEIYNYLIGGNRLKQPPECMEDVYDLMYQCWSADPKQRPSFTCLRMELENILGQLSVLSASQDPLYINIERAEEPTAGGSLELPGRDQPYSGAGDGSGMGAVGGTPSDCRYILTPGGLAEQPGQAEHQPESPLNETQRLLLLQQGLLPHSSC

[18] = biological target: Ephrin type-B receptor 1 (Homo sapiens) (UniProt P54762); assay: Inhibition of recombinant human GST-tagged EPHB1 catalytic domain (613 to 881 residues) expressed in baculovirus expression system at 0.1 uM using tyrosine-2 peptide as substrate incubated for 60 mins by Z'-LYTE assay relative to control
[19] = biological target: Misshapen-like kinase 1 (Homo sapiens) (UniProt Q8N4C8); assay: Inhibition of recombinant human GST-tagged MINK1 catalytic domain (1 to 320 residues) expressed in baculovirus expression system at 0.1 uM using serine/threonine-7 peptide as substrate incubated for 60 mins by Z'-LYTE assay relative to control
[20] = biological target: cGMP-dependent protein kinase 1 (Homo sapiens) (UniProt Q13976); assay: Inhibition of recombinant full length human GST-tagged PKG1 alpha expressed in baculovirus expression system at 0.1 uM using CREBtide as substrate 60 mins by Lanthascreen assay relative to control
[21] = biological target: Leucine-rich repeat serine/threonine-protein kinase 2 (Homo sapiens) (UniProt Q5S007); assay: Inhibition of recombinant human GST-tagged LRRK2 catalytic domain (970 to 2527 amino acids) expressed in baculovirus expression system at 0.1 uM using ERM (LRRKtide) peptide as substrate incubated for 60 mins by Adapta assay relative to control
[22] = test system: RAF proto-oncogene serine/threonine-protein kinase (Homo sapiens), P04049 [Y340D,Y341D]; assay: Inhibition of recombinant human GST-tagged RAF1 Y340D Y341D mutant catalytic domain (306 to 648 residues) expressed in baculovirus expression system at 0.1 uM using serine/threonine-3 peptide as substrate incubated for 60 mins by Z'-LYTE assay relative to control
Chain of RAF proto-oncogene serine/threonine-protein kinase (Homo sapiens), P04049 [Y340D,Y341D] (P04049 whole entry Y340D/Y341D, the tested form may be a part): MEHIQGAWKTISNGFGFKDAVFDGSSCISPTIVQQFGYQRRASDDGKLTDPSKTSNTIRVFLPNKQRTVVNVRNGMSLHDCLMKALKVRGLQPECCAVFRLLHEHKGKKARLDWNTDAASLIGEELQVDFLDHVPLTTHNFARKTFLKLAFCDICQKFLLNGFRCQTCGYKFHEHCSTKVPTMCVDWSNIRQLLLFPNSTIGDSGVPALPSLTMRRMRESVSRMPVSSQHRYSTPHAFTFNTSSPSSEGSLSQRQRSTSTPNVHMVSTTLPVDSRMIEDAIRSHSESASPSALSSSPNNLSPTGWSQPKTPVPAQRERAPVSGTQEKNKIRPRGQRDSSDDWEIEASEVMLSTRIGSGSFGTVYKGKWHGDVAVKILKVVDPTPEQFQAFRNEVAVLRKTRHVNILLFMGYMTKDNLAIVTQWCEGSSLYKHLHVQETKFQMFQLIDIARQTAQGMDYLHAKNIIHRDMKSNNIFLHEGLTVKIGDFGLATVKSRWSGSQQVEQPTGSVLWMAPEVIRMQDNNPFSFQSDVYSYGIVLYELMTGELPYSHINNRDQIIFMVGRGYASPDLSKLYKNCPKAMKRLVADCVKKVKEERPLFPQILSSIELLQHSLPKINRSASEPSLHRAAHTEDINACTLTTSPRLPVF

| Structure (SMILES) | inhibition [1] [%] | inhibition [2] [%] | inhibition [3] [%] | inhibition [4] [%] | inhibition [5] [%] | inhibition [6] [%] | inhibition [7] [%] | inhibition [8] [%] | inhibition [9] [%] | inhibition [10] [%] | inhibition [11] [%] | inhibition [12] [%] | inhibition [13] [%] | inhibition [14] [%] | inhibition [15] [%] | inhibition [16] [%] | inhibition [17] [%] | inhibition [18] [%] | inhibition [19] [%] | inhibition [20] [%] | other results |
| --- | --- | --- | --- | --- | --- | --- | --- | --- | --- | --- | --- | --- | --- | --- | --- | --- | --- | --- | --- | --- | --- |
| CCN1CCN(Cc2ccc(Nc3ncc(F)c(-c4cc(F)c5nc(C)n(C(C)C)c5c4)n3)nc2)CC1 [ABEMACICLIB] | 2.7 | 0 | 2 | 9.5 | 5.5 | 14 | 32.5 | 7.5 | 12.6 | 14 | 42.5 | 91.5 | 1 | 2.2 | 3 | 8 | 17 | 0.5 | 79.5 | 1.5 | inhibition [21]: 74.6%; inhibition [22]: 0% |
| CCN1CC2(C1)CN(c1ccc(Nc3ncc(F)c(-c4cnn5c4[C@H](C)CCCC5)n3)nc1)C2 | 0.5 | 1.5 | 5 | 2 | -2 | 7 | 10 | 1.5 | 12 | 6.5 | 3.5 | 29.5 | 3.5 | 22.5 | 32.5 | 5.5 | 31 | 8 | 27.5 | 6 | inhibition [21]: 97.5%; inhibition [22]: -0.5% |
